Test results published in patent US20110045092A1, “CASEIN […] ENCAPSULATING […] ACTIVE AGENTS AND USES THEREOF” (priority 2008, published 2011).
Structures can show the parent of a compound that is named as a salt. Blank lines part the entries; values can stand above or below the compound they belong to.

Columns and labels:
Zeta potential analysis = type: physicochemical; details: concentration range studied; PBS pH 7.0
Description: Particle size distribution, mean Gaussian diameter, and zeta potential were determined by a combined dynamic light scattering (DLS) and zeta potential analyzer (NICOMP 380, Particle Sizing Systems (Agilent Technologies, Inc.), Santa Barbara, Calif., USA) at 25° C.
Zeta potential was measured in PBS solutions without NaCl, under a 3 V/cm e-field, using phase analysis mode. The zeta potential was calculated from the electrophoretic mobility (EM) using the Smoluchowski model (which is a reasonable approximation given that the radius of the particles (a) was around 125 nm, and the ionic strength during the EM measurement was calculated to be about 50 mM, i.e. the Debye length (κ^−1) was around 1.4 nm, so that the product κ^−1a=92>>1).

[1] = Visual appearance of drug solution with and without β-CN; type: physicochemical
From the text: In order to evaluate the visual appearance of the tested drug when encapsulated within the β-CN system as compared to the non-encapsulated drug solubilized at a similar concentration, in PBS and DMSO (i.e. without the addition of β-CN), photographs were taken of both solutions and their appearance was compared.

β-CN [2] = target: T1, β-CN (Bos taurus, UniProt P02666); assay: Trp 143 fluorescence quenching of β-CN by drug; type: binding, bovine; details: for Kd: Trp 143 of β-CN quenched by drug, 1 mg/ml β-CN in PBS pH 7.0, emission 332 nm, read-out: Calculated Kd
T1 construct: β-CN from bovine milk (C6905, purity 90%); purchased Sigma-Aldrich Israel Ltd. C6905; host or cells: bovine milk
T1 sequence (P02666 16-224): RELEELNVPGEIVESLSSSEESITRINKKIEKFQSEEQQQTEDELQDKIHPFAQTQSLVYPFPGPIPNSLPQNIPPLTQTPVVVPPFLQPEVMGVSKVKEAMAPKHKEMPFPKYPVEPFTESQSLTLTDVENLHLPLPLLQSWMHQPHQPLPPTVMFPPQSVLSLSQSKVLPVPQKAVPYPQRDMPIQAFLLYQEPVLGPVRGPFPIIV
Description: Tryptophan (Trp) Fluorescence:
Trp 143 is located in the main hydrophobic domain of β-CN. Quenching of protein fluorescence due to energy transfer from this Trp residue to a bound ligand serves to determine the binding affinity.
β-CN-drug interaction was studied by monitoring the changes in the Trp fluorescence emission of β-CN upon addition of the drug. Trp fluorescence was determined using an excitation at 287 nm and emission was detected at 332 nm, with slit widths of 1 nm, using the Fluorolog 3-22 spectrofluoreineter. Intrinsic fluorescence of the Trp residues of β-CN was measured before and after addition of different amounts of each drug ranging between drug: β-CN molar ratio of 0.2:1 to 12:1 at 1 mg/ml β-CN. Changes in Trp fluorescence were used to evaluate the binding of the drug to β-CN. The apparent dissociation constant and the number of drug molecules that are involved in binding of one β-CN molecule were calculated from plots of the fluorescence intensity at 332 nm, expressed as the percentage of the fluorescence of the drug-free β-CN vs. the added drug concentration. The data was analyzed using Matlab (MathWorks), by means of the following equations: […]
where F is the fluorescence intensity at a given added ligand (drug) concentration; F0 the fluorescence intensity at the beginning of the titration; F1 the fluorescence at the end of the titration; [PF] the concentration of the free β-CN; [LF] the concentration of the free ligand, drug; [PL] the concentration of the β-CN-drug complex; Kd and Ka are the dissociation and association constants respectively (Christiaenset al. 2002 European Journal of Biochemistry 269 [12]:2918-2926).
Emission spectra of pure 1 mg/ml β-CN vs. those of drug encapsulated in 1mg/ml at 4:1 drug: β-CN molar ratio, were collected at Trp excitation wavelength 287 nm, using the Fluorolog 3-22 spectrofluorometer.

[3] = cited from earlier work
β-CN [4] = target: T1, β-CN; assay: Mitoxantrone fluorescence quenching by β-CN; type: binding, bovine; details: 42 μM mitoxantrone
Description: The β-CN-mitoxantrone interaction was further studied by monitoring the changes in the mitoxantrone fluorescence emission upon addition of β-CN. For this purpose a 3-D fluorescence spectra analysis of mitoxantrone was performed using the Fluorolog 3-22. Mitoxantrone fluorescence emission was measured using 609 nm and 675 nm excitation and emission, respectively, and slit widths of 1 nm. Intrinsic fluorescence of 42 μM mitoxantrone was measured before and after addition of different amounts of β-CN. The β-CN concentration range was 0.1-3.8 mg/ml. The apparent dissociation constant and the number of β-CN molecules bound per mitoxantrone molecule were calculated from plots of the fluorescence intensity at 675 nm expressed as the percentage of the fluorescence of the β-CN-free mitoxantrone vs. the added β-CN concentration. Data were analyzed as detailed herein above for Trp quenching.

[5] = 504 μM drug in PBS with 4.55-5.6% DMSO

zeta potential of drug in PBS without β-CN (Zeta potential analysis): around −30 mV
visual appearance, without β-CN [1, 5]: turbid, unstable and aggregated solution
Compound: CC(=O)O[C@@]12CO[C@@H]1C[C@H](O)[C@@]1(C)C(=O)[C@H](O)C3=C(C)[C@@H](OC(=O)[C@H](O)[C@@H](NC(=O)OC(C)(C)C)c4ccccc4)C[C@@](O)([C@@H](OC(=O)c4ccccc4)[C@H]21)C3(C)C [Docetaxel, Docetaxel trihydrate]

visual appearance, without β-CN ([1]; 84 μM drug in PBS and 0.8% DMSO): turbid, unstable and aggregated system
change of β-CN Trp-143 emission upon encapsulation (β-CN [2]; 4:1 Paclitaxel:β-CN, 1 mg/ml β-CN, excitation 287 nm): decrease in emission intensity
Compound: CC(=O)O[C@H]1C(=O)[C@@]2(C)[C@H]([C@H](OC(=O)c3ccccc3)[C@]3(O)C[C@H](OC(=O)[C@H](O)[C@@H](NC(=O)c4ccccc4)c4ccccc4)C(C)=C1C3(C)C)[C@]1(OC(C)=O)CO[C@@H]1C[C@@H]2O [Paclitaxel, paclitaxel]

visual appearance, without β-CN [1, 5]: turbid, unstable and aggregated solution
Compound: CCc1c2c(nc3ccc(OC(=O)N4CCC(N5CCCCC5)CC4)cc13)-c1cc3c(c(=O)n1C2)COC(=O)[C@]3(O)CC [irinotecan, irinotecan hydrochloride trihydrate]
pKa [3]: 8.1

The next lines start with the compound.

Compound: O=C1c2c(O)ccc(O)c2C(=O)c2c(NCCNCCO)ccc(NCCNCCO)c21 [mitoxantrone, Mitoxantrone dihydrochloride]
over-all mitoxantrone emission quenched by β-CN, up to % of its initial intensity (β-CN [4]; plateau at 0.7 mg/ml β-CN): up to 65%
Kd (β-CN [4]; mitoxantrone fluorescence quenched by β-CN, β-CN 0.1-3.8 mg/ml, excitation 609 nm, emission 675 nm, model fit, read-out: Calculated Kd): 726 nM
Kd (β-CN [2]; excitation 287 nm, model fit): 8.43 µM
over-all Trp emission after quenching, of its initial intensity (β-CN [2]; plateau at mitoxantrone:β-CN 6:1, 1 mg/ml β-CN): 20%
Log P [3]: higher than 2

Compound: vinblastine sulfate salt
Kd (β-CN [2]; excitation 287 nm, model fit): 50.9 µM
n (moles of quencher per moles of fluorophore) (β-CN [2]; drug molecules per β-CN molecule, Trp quenching, model fit): 5.25±0.57
initial overall Trp emission intensity quenched (β-CN [2]; vinblastine:β-CN 0.2:1 to 10:1 at 1 mg/ml β-CN): About 80%
pKa [3]: 5.5
